According to ChEMBL document CHEMBL1201862, “PubChem BioAssay data set” (2004):
Calls of active or inactive are those of the source.

Tests used:
[1] = molecular target: 1-acylglycerol-3-phosphate O-acyltransferase ABHD5/Perilipin-5 (Homo sapiens, UniProt Q00G26+Q8WTS1); assay: Luminescence-based biochemical high throughput dose response assay for inhibitors of the interaction of the lipase co-activator protein, abhydrolase domain containing 5 (ABHD5) with perilipin-5 (MLDP; PLIN5) (2K validation set). [Related pubchem assays (depositor defined):AID493035, AID493241]
[2] = molecular target: Perilipin-1/ABHD5 (Homo sapiens, UniProt O60240+Q8WTS1); assay: Luminescence-based biochemical high throughput dose response assay for inhibitors of the interaction of the lipase co-activator protein, abhydrolase domain containing 5 (ABHD5) with perilipin-1 (PLIN1) (2K validation set). [Related pubchem assays (depositor defined):AID493027, AID493057]
Perilipin-1/ABHD5, sequence (Q8WTS1 whole entry, the tested form may be a part): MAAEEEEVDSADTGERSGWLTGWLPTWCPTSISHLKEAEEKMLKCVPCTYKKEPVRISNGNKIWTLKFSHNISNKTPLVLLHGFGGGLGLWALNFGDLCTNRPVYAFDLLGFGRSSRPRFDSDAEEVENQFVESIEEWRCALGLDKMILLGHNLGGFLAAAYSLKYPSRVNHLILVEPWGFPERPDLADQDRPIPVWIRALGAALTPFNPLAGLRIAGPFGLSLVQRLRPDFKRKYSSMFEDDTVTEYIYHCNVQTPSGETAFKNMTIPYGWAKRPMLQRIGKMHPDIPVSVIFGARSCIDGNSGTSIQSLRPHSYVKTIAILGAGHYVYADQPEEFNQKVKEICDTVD
Perilipin-1/ABHD5, sequence (O60240 whole entry, the tested form may be a part): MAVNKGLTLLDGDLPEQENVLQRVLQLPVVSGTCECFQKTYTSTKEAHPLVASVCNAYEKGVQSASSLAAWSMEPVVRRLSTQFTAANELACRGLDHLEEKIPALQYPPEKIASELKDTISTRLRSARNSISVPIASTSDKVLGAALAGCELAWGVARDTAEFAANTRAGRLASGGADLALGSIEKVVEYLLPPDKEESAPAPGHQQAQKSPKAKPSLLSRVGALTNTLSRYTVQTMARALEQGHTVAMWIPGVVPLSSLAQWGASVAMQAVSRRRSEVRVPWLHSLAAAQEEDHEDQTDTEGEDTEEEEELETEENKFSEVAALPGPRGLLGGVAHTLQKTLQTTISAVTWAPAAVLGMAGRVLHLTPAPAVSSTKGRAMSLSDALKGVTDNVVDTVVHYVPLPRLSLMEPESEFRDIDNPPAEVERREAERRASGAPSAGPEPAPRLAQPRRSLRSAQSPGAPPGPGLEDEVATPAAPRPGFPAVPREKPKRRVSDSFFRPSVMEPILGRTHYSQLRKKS

[3] = molecular target: Induced myeloid leukemia cell differentiation protein Mcl-1 (Homo sapiens, UniProt Q07820); format: functional
Induced myeloid leukemia cell differentiation protein Mcl-1, sequence (Q07820 whole entry): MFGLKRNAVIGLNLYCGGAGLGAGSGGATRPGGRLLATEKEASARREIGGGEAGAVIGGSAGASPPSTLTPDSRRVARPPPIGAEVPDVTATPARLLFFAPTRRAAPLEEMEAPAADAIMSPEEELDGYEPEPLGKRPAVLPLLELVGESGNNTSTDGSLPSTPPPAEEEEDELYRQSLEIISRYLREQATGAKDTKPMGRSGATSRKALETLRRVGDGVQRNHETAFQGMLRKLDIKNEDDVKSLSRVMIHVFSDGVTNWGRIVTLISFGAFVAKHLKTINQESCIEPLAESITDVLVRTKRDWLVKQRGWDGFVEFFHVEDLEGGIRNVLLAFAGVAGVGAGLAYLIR

[4] = molecular target: T1, Heat shock factor protein 1 (Mus musculus, UniProt P38532); assay: HSF1 potentiators in luciferase reporter cells, confirmation, cell-based, NIH3T3, luminescence, dose retest (AID 435004); format: functional;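 note: stress induced by proteasome inhibitor MG132 added 30 min after compound; luciferase reporter driven by HSF1 response element in NIH3T3 cells; actives raise luminescence as potentiators of the MG132 stress response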
T1 sequence (P38532 whole entry): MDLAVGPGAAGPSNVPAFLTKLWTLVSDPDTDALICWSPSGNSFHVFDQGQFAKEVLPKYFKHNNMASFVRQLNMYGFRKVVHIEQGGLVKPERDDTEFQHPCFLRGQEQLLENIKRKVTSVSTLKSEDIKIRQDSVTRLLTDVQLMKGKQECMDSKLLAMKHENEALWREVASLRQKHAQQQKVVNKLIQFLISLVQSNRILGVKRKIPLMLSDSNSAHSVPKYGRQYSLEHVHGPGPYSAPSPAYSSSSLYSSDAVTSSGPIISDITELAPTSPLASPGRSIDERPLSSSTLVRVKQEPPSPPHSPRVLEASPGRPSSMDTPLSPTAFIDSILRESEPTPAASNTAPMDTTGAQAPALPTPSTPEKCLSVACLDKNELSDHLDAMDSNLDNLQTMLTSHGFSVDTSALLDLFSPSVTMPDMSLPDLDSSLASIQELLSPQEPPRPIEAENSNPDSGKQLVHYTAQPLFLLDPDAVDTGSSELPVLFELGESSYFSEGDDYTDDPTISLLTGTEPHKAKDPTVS

[5] = Counterscreen for AddAB inhibitors: absorbance-based bacterial cell-based high throughput dose response assay for inhibitors of bacterial viability. [Related pubchem assays (depositor defined):AID435030, AID449728, AID449731, AID488942, AID488955, AID488956]; format: functional
[6] = molecular target: T2, Kappa-type opioid receptor (Homo sapiens, UniProt P41145); format: functional
T2 sequence (P41145 whole entry): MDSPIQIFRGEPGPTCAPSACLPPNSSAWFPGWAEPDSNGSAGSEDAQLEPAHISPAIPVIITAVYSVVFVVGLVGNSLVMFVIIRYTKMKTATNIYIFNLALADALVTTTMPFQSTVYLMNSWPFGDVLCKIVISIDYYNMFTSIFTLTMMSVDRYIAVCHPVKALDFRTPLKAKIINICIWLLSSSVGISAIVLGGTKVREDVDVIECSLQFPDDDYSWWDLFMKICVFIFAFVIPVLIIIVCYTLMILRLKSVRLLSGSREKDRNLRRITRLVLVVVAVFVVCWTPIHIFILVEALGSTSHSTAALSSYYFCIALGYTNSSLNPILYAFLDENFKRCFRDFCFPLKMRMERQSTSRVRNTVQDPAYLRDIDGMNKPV

[7] = system: BJ; assay: cytotoxicity toward BJ-TERT-LT-ST fibroblasts, dose response, cell-based, RAS-independent, luminescence (AID 1935); format: functional; settings: Homo sapiens;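 note: BJ fibroblasts immortalized with TERT plus LT and ST oncogenes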
[8] = molecular target: Exodeoxyribonuclease V (Escherichia coli (strain K12), UniProt P04993+P07648+P08394); assay: E. coli RecBCD inhibitors, dose response, counter-screen for AddAB inhibitor project, absorbance, V66 E. coli, mutant T4 phage (AID 492957); format: functional, cell-based, Escherichia coli str. K-12 substr. MG1655
[9] = system: BJ; assay: cytotoxicity toward Ras-transformed BJeLR fibroblasts, dose response, cell-based, alamar blue fluorescence, cherrypicked samples (AID 2631); format: functional; settings: Homo sapiens;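 note: confirmatory dose-response assay in RAS-dependent BJ fibroblasts engineered with TERT, LT and ST, with cytotoxicity read by fluorescence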
[10] = system: Streptococcus sp. 'group A'; assay: growth inhibition of control SK(-) GAS strain, dose response, counter-screen for streptokinase expression inhibitor project, luminescence, kanamycin, BacTiterGlo, confirmation (AID 1900); format: functional, organism-based
[11] = cytotoxicity toward DRD oncogenic fibroblasts, dose response, cell-based, non-viral oncogenic, luminescence (AID 1934); format: functional; settings: Homo sapiens
[12] = molecular target: T2, Kappa-type opioid receptor; format: functional; remark: listed apart in the source
[13] = system: BJ; assay: cytotoxicity toward BJ-TERT fibroblasts, dose response, cell-based, RAS-independent, luminescence (AID 1933); format: functional; settings: Homo sapiens
[14] = Luminescence Cell-Based Dose Response HTS to Identify Inhibitors of 5'UTR Stem-Loop Driven Prion Protein mRNA Translation in H4 Neuroglioblastoma Cells. [Related pubchem assays: 1827 (Project Summary), 1813 (Primary HTS)]; format: functional
[15] = molecular target: T3, Streptokinase A (Streptococcus pyogenes serotype M1, UniProt P10520); assay: S. pyogenes streptokinase expression inhibitors, potency, dose response, plasminogen activation absorbance, OD405 (AID 1914); format: functional, Streptococcus pyogenes M1 GAS;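 note: secreted streptokinase activity via plasminogen activation per viability signal from cell pellet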
T3 sequence (P10520 whole entry): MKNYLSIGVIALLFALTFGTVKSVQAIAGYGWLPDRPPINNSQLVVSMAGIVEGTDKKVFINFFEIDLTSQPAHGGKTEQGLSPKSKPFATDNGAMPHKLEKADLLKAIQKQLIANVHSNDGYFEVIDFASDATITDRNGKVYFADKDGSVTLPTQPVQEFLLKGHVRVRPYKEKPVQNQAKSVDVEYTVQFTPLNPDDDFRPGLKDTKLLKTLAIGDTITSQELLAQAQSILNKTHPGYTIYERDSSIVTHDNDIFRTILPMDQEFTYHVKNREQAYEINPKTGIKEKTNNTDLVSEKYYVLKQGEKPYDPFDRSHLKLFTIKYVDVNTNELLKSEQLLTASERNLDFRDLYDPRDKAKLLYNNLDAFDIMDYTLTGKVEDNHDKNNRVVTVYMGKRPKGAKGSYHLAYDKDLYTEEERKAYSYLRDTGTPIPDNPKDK

[16] = system: BJ; assay: cells; format: functional, cell-based; settings: Homo sapiens
[17] = system: Streptococcus; assay: Group A Streptococcus viability loss, dose response, counter-screen for streptokinase expression inhibitor project, luminescence, BacTiterGlo (AID 1915); format: functional, organism-based;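 note: potency for reduction of bacterial viability or growth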
[18] = molecular target: Beta-galactosidase (Escherichia coli, UniProt Q8VNN2); format: functional
Beta-galactosidase, sequence (Q8VNN2 whole entry): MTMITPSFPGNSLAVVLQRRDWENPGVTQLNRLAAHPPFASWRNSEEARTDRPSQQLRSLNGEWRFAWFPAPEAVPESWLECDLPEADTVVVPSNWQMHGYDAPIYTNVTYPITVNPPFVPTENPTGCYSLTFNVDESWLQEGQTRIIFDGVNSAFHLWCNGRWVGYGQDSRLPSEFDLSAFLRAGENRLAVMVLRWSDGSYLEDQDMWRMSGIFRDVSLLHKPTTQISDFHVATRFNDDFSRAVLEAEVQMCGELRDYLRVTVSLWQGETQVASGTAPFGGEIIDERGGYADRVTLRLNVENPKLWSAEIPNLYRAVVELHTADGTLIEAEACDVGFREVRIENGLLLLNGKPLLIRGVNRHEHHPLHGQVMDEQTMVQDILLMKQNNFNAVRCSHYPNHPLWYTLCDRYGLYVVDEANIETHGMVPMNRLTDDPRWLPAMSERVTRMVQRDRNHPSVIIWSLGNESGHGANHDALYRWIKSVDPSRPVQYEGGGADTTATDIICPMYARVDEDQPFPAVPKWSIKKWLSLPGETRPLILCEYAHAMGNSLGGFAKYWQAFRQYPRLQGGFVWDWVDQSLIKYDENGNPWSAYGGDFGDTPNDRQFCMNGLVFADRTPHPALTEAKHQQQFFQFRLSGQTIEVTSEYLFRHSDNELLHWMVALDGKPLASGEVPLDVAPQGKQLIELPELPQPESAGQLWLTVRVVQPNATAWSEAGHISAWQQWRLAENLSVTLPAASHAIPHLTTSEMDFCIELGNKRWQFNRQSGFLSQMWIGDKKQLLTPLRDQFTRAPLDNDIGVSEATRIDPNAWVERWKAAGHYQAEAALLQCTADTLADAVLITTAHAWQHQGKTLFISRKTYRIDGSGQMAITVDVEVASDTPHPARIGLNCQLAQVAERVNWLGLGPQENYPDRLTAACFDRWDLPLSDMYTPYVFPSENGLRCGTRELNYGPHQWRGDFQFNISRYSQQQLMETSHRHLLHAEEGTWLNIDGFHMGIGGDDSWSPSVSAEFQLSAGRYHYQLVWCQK

[19] = cells; format: functional, cell-based
[20] = inhibitors of SNCA 5'UTR-driven reporter translation, confirmation, H4 neuroglioma cells, luminescence (AID 1988); format: functional, cell-based
[21] = cells; format: functional, cell-based; remark: listed apart in the source
[22] = molecular target: Ephrin type-A receptor 4 (Mus musculus, UniProt Q03137); assay: inhibitors of EphA4 binding to KYL peptide, primary screen, biochemical, colorimetric, mouse EphA4 (AID 689); format: functional
Ephrin type-A receptor 4, sequence (Q03137 whole entry): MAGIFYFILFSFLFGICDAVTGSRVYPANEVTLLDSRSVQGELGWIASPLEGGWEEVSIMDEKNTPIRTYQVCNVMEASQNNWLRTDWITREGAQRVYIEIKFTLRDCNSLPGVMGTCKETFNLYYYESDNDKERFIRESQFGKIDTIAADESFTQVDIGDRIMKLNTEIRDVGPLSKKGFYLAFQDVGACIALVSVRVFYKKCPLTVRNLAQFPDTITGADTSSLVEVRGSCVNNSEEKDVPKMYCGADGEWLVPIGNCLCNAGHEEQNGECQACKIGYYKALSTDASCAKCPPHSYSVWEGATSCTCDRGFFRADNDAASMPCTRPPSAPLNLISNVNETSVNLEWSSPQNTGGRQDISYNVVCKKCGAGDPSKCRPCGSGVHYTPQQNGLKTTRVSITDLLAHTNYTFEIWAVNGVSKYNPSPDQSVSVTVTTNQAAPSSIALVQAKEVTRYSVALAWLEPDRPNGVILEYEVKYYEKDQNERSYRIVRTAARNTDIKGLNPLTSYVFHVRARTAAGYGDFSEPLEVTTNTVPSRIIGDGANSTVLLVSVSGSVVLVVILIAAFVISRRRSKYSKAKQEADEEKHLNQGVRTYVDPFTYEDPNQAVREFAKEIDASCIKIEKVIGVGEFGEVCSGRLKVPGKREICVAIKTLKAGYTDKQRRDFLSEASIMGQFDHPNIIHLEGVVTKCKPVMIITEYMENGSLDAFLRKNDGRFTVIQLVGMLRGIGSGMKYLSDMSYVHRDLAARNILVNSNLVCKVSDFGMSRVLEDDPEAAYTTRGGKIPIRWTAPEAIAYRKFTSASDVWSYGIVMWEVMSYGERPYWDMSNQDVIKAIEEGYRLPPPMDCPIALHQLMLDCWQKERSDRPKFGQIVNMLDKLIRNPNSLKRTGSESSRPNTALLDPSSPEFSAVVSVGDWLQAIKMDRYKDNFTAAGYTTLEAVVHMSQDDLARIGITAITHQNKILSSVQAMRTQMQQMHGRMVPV

[23] = system: INS1; assay: beta cell apoptosis inhibitors, cytokine rescue, dose response, luminescence, retest (AID 449756); format: functional, cell-based; settings: Rattus norvegicus;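 note: cell death triggered by IL-1 beta plus TNF-alpha plus IFN-gamma mixture; protective hits raise ATP signal compared with cytokine alone wells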
[24] = NIH-3T3 fibroblast cytotoxicity, dose response, cytotoxicity control, cell-based, fluorescence, Alamar Blue, secondary assay (AID 2327); format: functional;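 note: NIH-3T3 mouse fibroblasts cultured with fluconazole at 8 µg/mL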
[25] = cells
[26] = system: HEK293; assay: cells; format: functional, cell-based; settings: Homo sapiens
[27] = molecular target: Nucleotide-binding oligomerization domain-containing protein 2 (Homo sapiens, UniProt Q9HC29); assay: NOD2 signaling inhibitors, cell-based, luminescence, uHTS, HEK293 (AID 1566); format: functional
Nucleotide-binding oligomerization domain-containing protein 2, sequence (Q9HC29 whole entry, the tested form may be a part): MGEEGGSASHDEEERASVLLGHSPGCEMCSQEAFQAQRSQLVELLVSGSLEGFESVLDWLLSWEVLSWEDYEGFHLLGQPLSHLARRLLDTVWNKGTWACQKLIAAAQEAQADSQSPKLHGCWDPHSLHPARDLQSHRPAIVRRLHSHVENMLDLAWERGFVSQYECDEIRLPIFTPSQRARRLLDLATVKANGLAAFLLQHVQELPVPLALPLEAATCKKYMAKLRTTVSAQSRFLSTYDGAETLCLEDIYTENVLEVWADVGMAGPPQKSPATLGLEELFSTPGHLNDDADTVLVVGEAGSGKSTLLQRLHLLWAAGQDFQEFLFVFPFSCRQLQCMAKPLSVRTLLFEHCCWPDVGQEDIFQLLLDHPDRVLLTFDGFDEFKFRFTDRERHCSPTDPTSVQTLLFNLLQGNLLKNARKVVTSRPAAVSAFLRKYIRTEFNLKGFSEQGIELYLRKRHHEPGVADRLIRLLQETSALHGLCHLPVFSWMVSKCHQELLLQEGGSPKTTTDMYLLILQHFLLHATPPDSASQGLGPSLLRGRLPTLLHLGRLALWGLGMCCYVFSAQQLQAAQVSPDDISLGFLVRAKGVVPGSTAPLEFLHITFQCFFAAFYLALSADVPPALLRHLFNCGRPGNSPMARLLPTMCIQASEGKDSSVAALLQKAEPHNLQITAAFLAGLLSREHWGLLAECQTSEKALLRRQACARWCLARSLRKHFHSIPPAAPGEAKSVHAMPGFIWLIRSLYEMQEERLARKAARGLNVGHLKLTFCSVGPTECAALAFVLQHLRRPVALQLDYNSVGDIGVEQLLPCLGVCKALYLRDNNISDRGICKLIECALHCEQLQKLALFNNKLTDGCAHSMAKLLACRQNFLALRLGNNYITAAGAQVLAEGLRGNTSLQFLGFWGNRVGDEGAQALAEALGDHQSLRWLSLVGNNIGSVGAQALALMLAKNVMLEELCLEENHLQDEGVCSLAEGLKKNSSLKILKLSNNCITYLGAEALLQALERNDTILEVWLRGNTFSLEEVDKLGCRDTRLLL

[28] = C. albicans growth with fluconazole, confirmation, fluorescence, retest (AID 2467); format: functional, cell-based
[29] = molecular target: Protein S100-A4 (Homo sapiens, UniProt P26447); assay: S100A4-myosin IIA binding inhibitor potency, dose response, biochemical, fluorescence polarization, cherry-picked hits (AID 687001); format: functional
Protein S100-A4, sequence (P26447 whole entry): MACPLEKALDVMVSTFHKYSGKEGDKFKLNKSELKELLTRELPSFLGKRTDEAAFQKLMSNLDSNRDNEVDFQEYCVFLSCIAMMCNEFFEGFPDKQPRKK

[30] = molecular target: Nonstructural protein 1 (Influenza A virus, UniProt Q194T2); format: functional, Influenza A virus (A/California/07/2009(H1N1))
Nonstructural protein 1, sequence (Q194T2 whole entry): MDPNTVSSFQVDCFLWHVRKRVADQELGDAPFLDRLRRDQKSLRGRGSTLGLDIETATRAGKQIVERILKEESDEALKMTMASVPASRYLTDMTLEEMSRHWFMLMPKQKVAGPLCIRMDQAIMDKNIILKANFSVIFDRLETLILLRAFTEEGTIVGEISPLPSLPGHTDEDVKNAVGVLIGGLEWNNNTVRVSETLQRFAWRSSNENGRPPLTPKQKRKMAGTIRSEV

[31] = system: HEK293; assay: NOD2 signaling inhibitors in MDP-stimulated cells, cell-based, uHTS, luminescence (AID 2001); format: functional; settings: Homo sapiens
[32] = molecular target: G-protein coupled receptor 55 (Homo sapiens, UniProt Q9Y2T6); assay: GPR55 agonists via beta-arrestin recruitment, primary screen, imaging, U2OS cells, beta-arrestin-GFP redistribution (AID 1961); format: functional
[33] = system: HEK293; assay: NOD1 signaling inhibitors, primary screen, cell-based, luminescence, uHTS (AID 1578); format: functional; settings: Homo sapiens
[34] = cytotoxicity toward NIH3T3 fibroblasts, dose response, counter-screen, cell-based, ATP luminescence, mouse fibroblasts (AID 2010); format: functional;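 note: cells exposed to compound for about 90 hours before reading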
[35] = molecular target: T4, Histone-lysine N-methyltransferase NSD2 (Homo sapiens, UniProt O96028); format: biochemical
T4 sequence (O96028 whole entry): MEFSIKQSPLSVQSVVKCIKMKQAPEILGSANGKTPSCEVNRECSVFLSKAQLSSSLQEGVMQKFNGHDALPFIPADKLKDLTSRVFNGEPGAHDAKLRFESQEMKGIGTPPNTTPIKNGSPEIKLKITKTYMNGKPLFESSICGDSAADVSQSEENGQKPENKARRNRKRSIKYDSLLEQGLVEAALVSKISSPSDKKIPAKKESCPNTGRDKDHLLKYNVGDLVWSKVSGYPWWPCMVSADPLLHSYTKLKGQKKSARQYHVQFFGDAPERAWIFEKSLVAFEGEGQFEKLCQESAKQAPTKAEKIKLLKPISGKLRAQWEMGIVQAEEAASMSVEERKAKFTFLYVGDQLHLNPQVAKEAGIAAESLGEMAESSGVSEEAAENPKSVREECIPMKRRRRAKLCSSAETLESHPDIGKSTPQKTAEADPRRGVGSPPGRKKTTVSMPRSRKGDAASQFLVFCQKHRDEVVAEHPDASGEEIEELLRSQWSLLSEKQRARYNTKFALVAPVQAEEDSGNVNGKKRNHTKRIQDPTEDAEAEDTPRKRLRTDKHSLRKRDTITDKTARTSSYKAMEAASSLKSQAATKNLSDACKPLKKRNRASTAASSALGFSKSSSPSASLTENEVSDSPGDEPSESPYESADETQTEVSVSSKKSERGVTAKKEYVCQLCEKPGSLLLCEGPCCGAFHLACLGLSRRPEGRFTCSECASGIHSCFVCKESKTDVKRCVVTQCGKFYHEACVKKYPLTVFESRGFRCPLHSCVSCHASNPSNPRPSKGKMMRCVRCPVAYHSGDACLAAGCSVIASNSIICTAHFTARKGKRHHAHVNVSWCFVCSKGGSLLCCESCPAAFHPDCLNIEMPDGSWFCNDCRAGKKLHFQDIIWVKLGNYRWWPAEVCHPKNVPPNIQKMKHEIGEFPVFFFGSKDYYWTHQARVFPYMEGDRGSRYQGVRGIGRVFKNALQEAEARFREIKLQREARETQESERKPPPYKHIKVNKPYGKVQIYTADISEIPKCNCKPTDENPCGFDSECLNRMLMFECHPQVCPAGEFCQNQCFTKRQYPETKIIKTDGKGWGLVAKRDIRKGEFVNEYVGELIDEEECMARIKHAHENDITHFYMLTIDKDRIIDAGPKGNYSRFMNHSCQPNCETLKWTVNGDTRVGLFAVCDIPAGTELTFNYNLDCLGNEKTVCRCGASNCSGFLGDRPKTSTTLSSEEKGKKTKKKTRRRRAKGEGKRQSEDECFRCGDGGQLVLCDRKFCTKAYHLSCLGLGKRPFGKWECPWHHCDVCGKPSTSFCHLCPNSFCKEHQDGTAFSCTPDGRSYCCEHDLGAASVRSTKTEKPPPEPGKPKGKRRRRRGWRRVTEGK

[36] = system: HEK293; assay: cells; format: functional, cell-based; settings: Homo sapiens; remark: listed apart in the source
[37] = cytotoxicity in HEK-293T cells, dose response, cytotoxicity control for TCR NF-kB inhibitor project, luminescence, T-cell screen hits (AID 489026); format: functional, cell-based;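 note: cells exposed to compound about 14 hours before the viability readout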
[38] = inhibitors of intracellular T. cruzi replication, confirmation, NIH3T3 host cells, beta-gal luminescence (AID 2044); format: functional, cell-based;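 note: intracellular parasites grown in NIH/3T3 mouse fibroblasts as host cells; luminescent beta-galactosidase reporter signal from transgenic T. cruzi replicating inside host cells; inhibitors lower the luminescence signal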
[39] = system: HEK293; assay: cells; format: functional, cell-based; settings: Homo sapiens; remark: listed apart in the source

COC(=O)c1cc(-c2ccc(C)o2)nc2ccccc12
IC50 [1]: 8.7 µM (active)
IC50 [2]: 8.68 µM (active)
IC50 [3]: 18 µM (active)

Oc1c(N=Nc2ccccn2)ccc2ccccc12
EC50 [4]: 9.82 µM (active)
IC50 [5]: > 119 µM (inactive)
IC50 [6]: > 32 µM
EC50 [7]: 2.99 µM (inconclusive)
IC50 [8]: > 119 µM (inactive)
EC50 [9]: 2.84 µM (active)
EC50 [10]: 2.67 µM (active)
EC50 [11]: 3.59 µM (active)
IC50 [12]: 2.32 µM (active)
EC50 [13]: 2.8 µM (active)
EC50 [14]: 9.75 µM (active)
EC50 [15]: > 150 µM (not active)
EC50 [16]: 2.76 µM (inconclusive)
EC50 [17]: 25.1 µM (active)
EC50 [18]: 14.5 µM (active)
EC50 [19]: > 350 µM (not active)
EC50 [20]: 7.46 µM (active)
EC50 [21]: 6.46 µM (active)
IC50 [22]: 13.8 µM (active)
AC50 [23]: 0.375 µM (active)

CCN(CC)c1ccc(/C=C/c2ccc3ccc(OC)cc3[n+]2CC)cc1
EC50 [24]: > 160 µM (inconclusive)
EC50 [25]: 0.023 µM (active)
IC50 [26]: 1.9 µM (active)
EC50 [27]: 6.78 µM (active)
EC50 [28]: < 0.03 µM (active)
AC50 [29]: 1.12 µM (active)
IC50 [30]: 17.3 µM (active)
EC50 [7]: 0.892 µM (inconclusive)
IC50 [31]: 2.2 µM (active)
EC50 [32]: > 32 µM (inactive)
EC50 [11]: 2.25 µM (active)
EC50 [33]: 3.64 µM (active)
EC50 [13]: 0.732 µM (inconclusive)
EC50 [34]: 5.54 µM (active)
EC50 [16]: 2.82 µM (active)
AC50 [35]: 17.4 µM (active)
IC50 [36]: > 20 µM (inactive)
IC50 [37]: > 80 µM (inactive)
EC50 [38]: < 0.1 µM (active)
IC50 [39]: 9.34 µM (active)
